Data taken from patent US10154988B2, “Methods and compositions for treating schizophrenia” (The Johns Hopkins University, priority 2012, dated 2018).
Entries after “also recorded” stand apart in the source; their conditions may differ.

How the values were obtained:
[1] = tested on: somatostatin in DG hilus; assay: somatostatin immunohistochemistry, SOM-immunoreactive hilar neuron counts after 4-week levetiracetam; assay type: in vivo, rat; conditions: 10 mg/kg/day, osmotic minipumps, four weeks; AI-LEV vs Y p=0.679, AI-LEV vs AI-VEH p<0.01
Protocol: Under isoflurane anesthesia, memory-impaired aged rats are implanted subcutaneously in the intrascapular region with osmotic mini-pumps (ALZET,
Durect Corporation, Cupertino, Calif.) with levetiracetam (10 mg/kg/day) or saline vehicle for four weeks prior to perfusion. Young rats, which served as controls, receive either saline vehicle in mini-pumps or no implantation.
At the end of the 4-week treatment period, rats are anesthetized with isoflurane and perfused transcardiacally with 0.1 M phosphate buffer saline, followed by 4% paraformaldehyde in phosphate buffer. Brains are removed and post-fixed in paraformaldehyde overnight. […]
Tissue is labeled with anti-SOM antiserum (Santa Cruz Biotechnology; cat. no. SC7819-P) using an established immunoperoxidase protocol and tissue sections are processed concurrently to minimize inter-replication variability (Haberman et al., 2009). […] The secondary antibody is detected with avidin-biotin complex (ABC Elite; Vector Laboratories Inc., Burlingame, Calif.) and the avidin-biotin complex is visualized with nickel-enhanced diaminobenzadine (Vector Laboratories Inc., Burlingame, Calif.). […]
Interneuron quantification is performed using a Zeiss Axioplan 2 microscope equipped with a motorized stage. […] Neuron counts are analyzed as the total number of hilar interneurons per hippocampal section for each rat.

[2] = tested on: aged-impaired (AI) rats; assay: eight-arm Radial Arm Maze task, one-hour delay (levetiracetam, valproate, combination); assay type: in vivo, rat; conditions: for average no. of errors ± SEM in retention test: one-hour delay, vehicle 2.00±0.42; for reducing the number of errors in the radial arm maze: levetiracetam on its own
Protocol: The effects of levetiracetam on the spatial memory retention of aged-impaired (AI) rats are assessed in a Radial Arm Maze (RAM) behavioral task using vehicle control and five different dosage levels of levetiracetam (1.25 mg/kg/day, 2.5 mg/kg/day, 5 mg/kg/day, 10 mg/kg/day and 20 mg/kg/day). RAM behavioral tasks are preformed on ten AI rats. All six treatment conditions are tested on all ten rats, as described above for the MWM test. The RAM apparatus used consists of eight equidistantly-spaced arms. An elevated maze arm (7 cm width×75 cm length) projects from each facet of an octagonal center platform (30 cm diameter, 51.5 cm height). Clear side walls on the arms are 10 cm high and are angled at 65° to form a trough. A food well (4 cm diameter, 2 cm deep) is located at the distal end of each arm. Froot Loops™ (Kellogg Company) are used as rewards. Blocks constructed of Plexiglas™ (30 cm height×12 cm width) can be positioned to prevent entry to any arm. Numerous extra maze cues surrounding the apparatus are also provided. The AI rats are initially subjected to a pre-training test (Chappell et al. Neuropharmacology 37: 481-487, 1998). The pre-training test consists of a habituation phase (4 days), a training phase on the standard win-shift task (18 days) and another training phase (14 days) in which a brief delay is imposed between presentation of a subset of arms designated by the experimenter (e.g., 5 arms available and 3 arms blocked) and completion of the eight-arm win-shift task (i.e., with all eight arms available). In the habituation phase, rats are familiarized to the maze for an 8-minute session on four consecutive days. In each of these sessions food rewards are scattered on the RAM, initially on the center platform and arms and then progressively confined to the arms. After this habituation phase, a standard training protocol is used, in which a food pellet is located at the end of each arm. Rats receive one trial each day for 18 days. Each daily trial terminates when all eight food pellets have been obtained or when either 16 choices are made or 15 minutes had elapsed. After completion of this training phase, a second training phase is carried out in which the memory demand is increased by imposing a brief delay during the trial. At the beginning of each trial, three arms of the eight-arm maze are blocked. Rats are allowed to obtain food on the five arms to which access is permitted during this initial ‘information phase’ of the trial. Rats are then removed from the maze for 60 seconds, during which time the barriers on the maze are removed, thus allowing access to all eight arms. Rats are then placed back onto the center platform and allowed to obtain the remaining food rewards during this ‘retention test’ phase of the trial. The identity and configuration of the blocked arms varies across trials. The number of “errors” the AI rats make during the retention test phase is tracked. An error occurs in the trial if the rats enter an arm from which food had already been retrieved in the pre-delay component of the trial, or if it re-visits an arm in the post-delay session that has already been visited. After completion of the pre-training test, rats are subjected to trials with more extended delay intervals, i.e., a one-hour delay, between the information phase (presentation with some blocked arms) and the retention test (presentation of all arms). During the delay interval, rats remain off to the side of the maze in the testing room, on carts in their individual home cages. AI rats are pretreated 30-40 minutes before daily trials with a one-time shot of the following six conditions: 1) vehicle control (0.9% saline solution); 2) levetiracetam (1.25 mg/kg/day); 3) levetiracetam (2.5 mg/kg/day); 4) levetiracetam (5 mg/kg/day); 5) levetiracetam (10 mg/kg/day); 6) levetiracetam (20 mg/kg/day); […] Injections are given every other day with intervening washout days. Each AI rat is treated with all six conditions within 23 days of testing. […]

For `CC[C@@H](C(N)=O)N1CCCC1=O` [levetiracetam, (2S)-2-(2-oxopyrrolidin-1-yl) butanamide], the “levels of somatostatin in DG hilus (SOM-immunoreactive hilar neurons)” value [1] was “restores the levels of somatostatin; also recorded: restores sematostatin in DG hilus”, the “average no. of errors ± SEM in retention test” value ([2]; 5 mg/kg/day i.p., t(9)=2.18, p=0.057) was 0.75±0.32 and the “average no. of errors ± SEM in retention test” value ([2]; 10 mg/kg/day i.p., t(9)=2.37, p=0.042) was 0.80±0.27. For the same compound, the “performance of AI rats in the radial maze task” value ([2]; levetiracetam 20 mg/kg) was “fails to improve the performance”, the “reducing the number of errors in the radial arm maze” value (“reducing the number of errors” for short) ([2]; 1.25 mg/kg i.p.) was “not at 1.25 mg/kg or 2.5 mg/kg” and the “reducing the number of errors” value ([2]; 2.5 mg/kg i.p.) was “not at 1.25 mg/kg or 2.5 mg/kg”. The “reducing the number of errors” value ([2]; 5-10 mg/kg i.p.) was “effective in reducing the number of errors”.
